Earlier results as cited in US20070298000A1, “High SPF transparent or translucent naturally derived, cytoprotective, UV radiation resistant compositions” (priority 2006, published 2007).

How the values were obtained:
[1] = system: cancer cells
[2] = system: uterine wet weight, cell height, cell proliferation; conditions: cell proliferation assays

| Compound | effect on growth of cancer cells / activity in cells [1] | estrogenicity [2] |
| --- | --- | --- |
| Cc1ccc(C=C2C(=O)C3(C)CCC2C3(C)C)cc1 (stereo not drawn) [4-methyl-benzylidene camphor, 3-(4-methylbenxylidene) camphor] | made cancer cells grow more rapidly | highly estrogenic |
| COc1ccc(C(=O)c2ccccc2)c(O)c1 [benzophenone-s] | made cancer cells grow more rapidly | highly estrogenic |
| CC1CC(OC(=O)c2ccccc2O)CC(C)(C)C1 (stereo not drawn) [homosalate] | made cancer cells grow more rapidly |  |
| CCCCC(CC)COC(=O)c1ccc(N(C)C)cc1 (stereo not drawn) [octyl-dimethyl-PABA] | made cancer cells grow more rapidly |  |
